One experiment concerns primary CLL samples. The experiment can be described thus: TMT-tagging and mass-spectrometry profiling of relative protein abundance after compound exposure. It counts as cell-based, human. The text has this: Data import: Relative abundance (RA) data was imported into the R statistical programming environment v.3.1.2. Proteins with less than one spectral count in any of the three MS runs for each case scenario were filtered out and relative abundance was scale normalized to the same median by using normalizeBetweenArrays( ) function implemented in the limma package for Bioconductor (see Yang et al., Nucleic Acids Research, 30(4), e15 (2002)).
Comparative analysis: RA scores were log 2-transformed to perform direct comparison of compounds exposure versus DMSO control and a paired moderated t-test (see Smyth, Statistical Applications in Genetics and Molecular Biology, 3(1), article 3 (2004)) was performed by using lmfit( ) and eBayes( ) functions form limma package to test differential relative abundance between experimental conditions. For differential analysis across cases, the log-2 fold changes of replicates for two of the case scenarios were considered.
Linear regression analysis: Linear regression was modeled by using lm( ) function from the stats package. This function provided the correlation coefficients as well as the linear fitted model. Data were assessed for outliers detection within the linear model via the Studentized residuals method (implemented in outlierTest( ) function from car package) and deemed significant if their q-values were under a threshold of 0.05 (5%).
The proteins subjected to the analysis were those with more than one spectral count matched in three MS runs representing each case scenario. A total of 6114, 6070, 5982 and 5382 proteins were retained for each case scenario. Differential expression analysis was applied to the high and consistent coverage of 4594 proteins quantified across all case scenarios. FIGS. 2A-2D show distribution of normalized relative abundances for each replicate of the four case scenarios (Cases B1-B4). The standard deviation of each replicate is represented as a stair-plot line at the bottom of the boxplot. FIGS. 3A-3D show heatmaps representing correlations of log 2 fold-changes of protein levels post compound treatment as compared with DMSO across conditions for all case scenarios. Low correlation of log 2 fold-changes at 6 hours may be due to the alteration of a small subset of proteins at an early time point without strong general effects across the proteome. Stronger correlations at 24 hours can be linked to a higher proportion of proteins perturbed reflecting downstream changes upon compound exposure.

Experiment [1] relates to samples from CLL patients. The experiment can be described thus: in vitro proliferation assays on samples from four groups of CLL patients. Type of experiment: cell-based, human. The text has this:
The samples used in this study were from four groups of CLL patients.

Another experiment concerns CLL cell lines. The experiment can be described thus: Thymidine incorporation assay (cell proliferation). Type of experiment: cell-based. On the procedure: After four days, cells were diluted 1:7 with fresh media, containing the same concentration of treatment compound. Three days later, ^3H-thymidine was added to label proliferating cells for 6-7 hours. Cells were then harvested onto filter plates for counting on a scintillation counter.
For orientation: Incorporation of labelled thymidine or its analogues reports DNA synthesis.

[2] abbreviates: FIG. 5 heatmap, 10 μM, 24 hours, vs DMSO.

For the compound `Nc1cccc2c1CN(C1CCC(=O)NC1=O)C2=O` (centres unmarked) [lenalidomide, 1-oxo-2-(2,6-dioxopiperidin-3-yl)-4-aminoisoindoline, reference compound], the “protein abundance levels of SELL, SNX20 and KLF13 upon exposure” value with primary CLL samples (10 μM, 24 hours) is on record as “not affected or slightly increased”. The entries for the “GZMB protein expression level upon exposure” value with primary CLL samples (Case B1) and with primary CLL samples (Case B4) were “increased” and “decreased”, respectively. Further, the “level of WIZ (widely-interspaced zinc-finger) upon exposure” value in the experiment with primary CLL samples (Case B1) is reported as “increased”. In the experiment on primary CLL samples (setting [2]), the “levels of Group 4 proteins (6 proteins including IKZF3 and a second IKZF1 isoform) upon exposure” value is “mild effects”. Also, in the experiment with primary CLL samples (setting [2]), the “protein abundance levels of Group 3 proteins (SMNX20, SELL, KLF13, WIZ, IKZF1, NFKBIE, TCF7 and IRF8) upon exposure” value is “do not change or increase”. Besides, the “effect on cell proliferation” value is given as “neither Compound A nor lenalidomide had any effect on cell proliferation” in experiment [1] (samples from the fourth group of patients (Case B4)) and “no effect on cell proliferation” in experiment [1] (samples from the third group of patients (Case B3)). For the same compound, the “responsiveness of cell lines to treatment” value in the experiment with CLL cell lines (Bucket #1 (EHEB and I83-E95)) was “responsive to both compounds”; in the experiment with CLL cell lines (Bucket #2 (Mec2, CII, and CI)), “responsive to both compounds”; with CLL cell lines (Bucket #4 (HG3)), “not responsive to either Compound A or lenalidomide”.

The values above are taken from patent US20170038387A1, “METHODS FOR TREATING CHRONIC LYMPHOCYTIC LEUKEMIA AND THE USE OF BIOMARKERS AS A PREDICTOR OF CLINICAL SENSITIVITY TO IMMUNOMODULATORY THERAPIES” (Celgene Corporation, priority 2015, published 2017).
